According to BindingDB's records for doi:10.1021/jm000119i (Rensselaer Polytechnic Institute, 2000):

assay: Binding affinity to displace radioligand [3H]naltrindole on Opioid receptor delta 1 in guinea pig membranes.

First: CN1CC[C@]23c4c5ccc(N)c4O[C@H]2[C@@H](O)C=C[C@H]3[C@H]1C5
Second: CNc1ccc2c3c1O[C@H]1[C@@H](O)C=C[C@H]4[C@@H](C2)N(C)CC[C@@]341
The Ki of the first is 2.4-fold lower: 2400 nM for the first, 5700 nM for the second. The first binds more tightly here.

`CN(C)c1ccc2c3c1O[C@H]1[C@@H](O)C=C[C@H]4[C@@H](C2)N(C)CC[C@@]341` and `CN1CC[C@]23c4c5ccc(Nc6ccccc6)c4O[C@H]2[C@@H](O)C=C[C@H]3[C@H]1C5` are within 1.5-fold of each other in Ki: 1600 nM for the first, 1500 nM for the second.

`CN1CC[C@]23c4c5ccc(NCc6ccccc6)c4O[C@H]2[C@@H](O)C=C[C@H]3[C@H]1C5` gave a Ki of 5500 nM.
